# PubChem BioAssay (NCI)
#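 Cells were grown in 96-well plates and exposed to each compound for 48 hours at five concentrations; endpoints were interpolated linearly between bracketing concentrations, or set to the highest concentration if not reached. Definition used: TGI = concentration required for complete inhibition of growth.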
# How the values were obtained:
# Assay in all cases: DTP human tumour cell line panel, 48 h
# [1] = tested on: KM12 colon
# [2] = tested on: MALME-3M melanoma
# [3] = tested on: HCT-116 colon
# [4] = tested on: A549 NSCLC
# [5] = tested on: OVCAR-5 ovarian
# [6] = tested on: RPMI-8226 leukemia
# [7] = tested on: TK-10 renal
# [8] = tested on: OVCAR-8 ovarian
# [9] = tested on: MDA-MB-435
# [10] = tested on: CCRF-CEM leukemia
# [11] = tested on: LOX IMVI melanoma
# [12] = tested on: HOP-62 NSCLC
# [13] = tested on: DU-145 prostate
# [14] = tested on: MCF7 breast
# [15] = tested on: SR leukemia
# [16] = tested on: NCI-H23 lung
# [17] = tested on: 786-0 renal
# [18] = tested on: NCI/ADR-RES ovarian
# [19] = tested on: MOLT-4 leukemia
# [20] = tested on: SK-MEL-28 melanoma
# [21] = tested on: ACHN renal
# [22] = tested on: COLO 205 colon
# [23] = tested on: SF-539 CNS
# [24] = tested on: BT-549 breast
# [25] = tested on: SK-OV-3 ovarian
# [26] = tested on: NCI-H226 lung
# [27] = tested on: NCI-H522 lung
# [28] = tested on: NCI-H460 lung
# [29] = tested on: SF-295 CNS
# [30] = tested on: HCT-15 colon
# [31] = tested on: CAKI-1 renal
# [32] = tested on: IGROV1 ovarian
# [33] = tested on: OVCAR-3 ovarian
# [34] = tested on: K-562 leukemia
# [35] = tested on: MDA-MB-231 breast
# [36] = tested on: MDA-N
# [37] = tested on: PC-3 prostate
# [38] = tested on: UO-31 renal
# [39] = tested on: UACC-62 melanoma
# [40] = tested on: SNB-19 CNS
# [41] = tested on: U251 CNS
# [42] = tested on: SF-268 CNS
# [43] = tested on: HL-60(TB) leukemia
# [44] = tested on: SNB-75 CNS
# [45] = tested on: A498 renal
# [46] = tested on: SW-620 colon
# [47] = tested on: T-47D breast
# [48] = tested on: HT29 colon
# [49] = tested on: SK-MEL-5 melanoma
# [50] = tested on: HOP-92 NSCLC
# [51] = tested on: M14 melanoma
# [52] = tested on: SN12C renal
# [53] = tested on: EKVX NSCLC
# [54] = tested on: OVCAR-4 ovarian
# [55] = tested on: HS 578T breast
# [56] = tested on: HCC-2998 colon
# [57] = tested on: UACC-257 melanoma
# [58] = tested on: SK-MEL-2 melanoma
# [59] = tested on: RXF 393 renal
smiles,measurement,setting,value
Cc1ccc2c(=O)cc(-c3csc4ccccc34)[nH]c2n1,TGI,[1],0.86 µM
same,TGI,[2],54.6 µM
same,TGI,[3],9.38 µM
same,TGI,[4],19.5 µM
same,TGI,[5],6.47 µM
same,TGI,[6],15 µM
same,TGI,[7],9.78 µM
same,TGI,[8],5.55 µM
same,TGI,[9],< 0.01 µM
same,TGI,[10],1.59 µM
same,TGI,[11],> 100 µM
same,TGI,[12],21.8 µM
same,TGI,[13],1.09 µM
same,TGI,[14],18.1 µM
same,TGI,[15],0.142 µM
same,TGI,[16],2.51 µM
same,TGI,[17],16 µM
same,TGI,[18],0.569 µM
same,TGI,[19],1.09 µM
same,TGI,[20],> 100 µM
same,TGI,[21],12.9 µM
same,TGI,[22],0.756 µM
same,TGI,[23],< 0.0133 µM
same,TGI,[24],22.3 µM
same,TGI,[25],> 32 µM
same,TGI,[26],0.0863 µM
same,TGI,[27],< 0.01 µM
same,TGI,[28],> 33.9 µM
same,TGI,[29],0.0101 µM
same,TGI,[30],13.4 µM
same,TGI,[31],0.228 µM
same,TGI,[32],16.7 µM
same,TGI,[33],< 0.01 µM
same,TGI,[34],> 39.7 µM
same,TGI,[35],0.0836 µM
same,TGI,[36],< 0.01 µM
same,TGI,[37],0.0198 µM
same,TGI,[38],2.14 µM
same,TGI,[39],> 76.8 µM
same,TGI,[40],15.3 µM
same,TGI,[41],0.0783 µM
same,TGI,[42],> 53.2 µM
same,TGI,[43],0.0258 µM
same,TGI,[44],> 51.2 µM
same,TGI,[45],1.1 µM
same,TGI,[46],> 100 µM
same,TGI,[47],> 100 µM
same,TGI,[48],0.0481 µM
same,TGI,[49],1.05 µM
same,TGI,[50],> 81 µM
same,TGI,[51],0.031 µM
same,TGI,[52],10.9 µM
OC(C1CCC=NN1C(O)(C(F)(F)F)C(F)(F)F)(C(F)(F)F)C(F)(F)F (stereo not drawn),TGI,[53],> 10 µM
same,TGI,[1],> 10 µM
same,TGI,[54],> 10 µM
same,TGI,[2],> 10 µM
same,TGI,[3],> 10 µM
same,TGI,[4],> 10 µM
same,TGI,[5],> 10 µM
same,TGI,[6],> 10 µM
same,TGI,[7],> 10 µM
same,TGI,[8],> 10 µM
same,TGI,[9],> 10 µM
same,TGI,[10],> 10 µM
same,TGI,[11],> 10 µM
same,TGI,[12],> 10 µM
same,TGI,[13],> 10 µM
same,TGI,[14],> 10 µM
same,TGI,[15],> 10 µM
same,TGI,[16],> 10 µM
same,TGI,[17],> 10 µM
same,TGI,[18],> 10 µM
same,TGI,[19],> 10 µM
same,TGI,[55],> 10 µM
same,TGI,[20],> 10 µM
same,TGI,[21],> 10 µM
same,TGI,[56],> 10 µM
same,TGI,[22],> 10 µM
same,TGI,[23],> 10 µM
same,TGI,[24],> 10 µM
same,TGI,[25],> 10 µM
same,TGI,[26],> 10 µM
same,TGI,[27],> 10 µM
same,TGI,[28],> 10 µM
same,TGI,[29],> 10 µM
same,TGI,[30],> 10 µM
same,TGI,[31],> 10 µM
same,TGI,[32],> 10 µM
same,TGI,[33],> 10 µM
same,TGI,[34],> 10 µM
same,TGI,[35],> 10 µM
same,TGI,[36],> 10 µM
same,TGI,[37],> 10 µM
same,TGI,[39],> 10 µM
same,TGI,[40],> 10 µM
same,TGI,[41],> 10 µM
same,TGI,[42],> 10 µM
same,TGI,[44],> 10 µM
same,TGI,[45],> 10 µM
same,TGI,[47],> 10 µM
same,TGI,[57],> 10 µM
same,TGI,[48],> 10 µM
same,TGI,[58],> 10 µM
same,TGI,[49],> 10 µM
same,TGI,[50],> 10 µM
same,TGI,[51],> 10 µM
same,TGI,[52],> 10 µM
same,TGI,[59],> 10 µM
